Reference: the NIST ThermoML archive (doi:10.1016/j.jct.2013.05.040)

Tests used:
[1] = xn = mol fraction of the nth substance listed; details: Liquid; for viscosity: Moving piston method; for mass density: Vibrating tube method
[2] = Liquid; for mass density: Vibrating tube method; for viscosity: 101.33 kPa, Moving piston method

C [methane] + CC(C)O
[1]
Details	mass density, 302.8 K [kg/m3]	mass density, 323.1 K [kg/m3]	viscosity, 302.8 K [mPa·s]	viscosity, 323.1 K [mPa·s]
980 kPa, x1 = 0.018	–	754.5	–	0.908
1070 kPa, x1 = 0.019	771.2	–	1.523	–
2020 kPa, x1 = 0.033	–	750	–	0.847
2080 kPa, x1 = 0.037	767.2	–	1.403	–
3080 kPa, x1 = 0.049	–	745	–	0.8
3190 kPa, x1 = 0.055	761.2	–	1.339	–
4080 kPa, x1 = 0.065	–	740.7	–	0.74
4080 kPa, x1 = 0.069	756.5	–	1.262	–
4980 kPa, x1 = 0.078	–	736.9	–	0.717
5080 kPa, x1 = 0.085	753.3	–	1.208	–
6040 kPa, x1 = 0.093	–	732.3	–	0.676
6060 kPa, x1 = 0.1	748.9	–	1.129	–

CC(C)O [propan-2-ol]
mass density [kg/m3], [2]
Details	302.9 K	323 K
1000 kPa	–	760.6
1040 kPa	778.1	–
2000 kPa	778.9	–
2020 kPa	–	761.6
2990 kPa	779.8	–
3000 kPa	–	762.7
4060 kPa	780.8	–
4070 kPa	–	763.7
5000 kPa	–	764.7
5010 kPa	781.6	–
6000 kPa	782.5	–
6010 kPa	–	765.7
7020 kPa	783.4	766.7
8010 kPa	–	767.7
8020 kPa	784.3	–
9000 kPa	785.1	–
9010 kPa	–	768.6
10000 kPa	786	–
10020 kPa	–	769.6

[2]
Details	viscosity [mPa·s]
303.3 K	1.716
323.2 K	0.973

CC(C)O [propan-2-ol] + O=C=O
[1]
Details	mass density, 302.8 K [kg/m3]	mass density, 323.1 K [kg/m3]	viscosity, 302.8 K [mPa·s]	viscosity, 323.1 K [mPa·s]
980 kPa, x2 = 0.047	–	762.7	–	0.895
990 kPa, x2 = 0.062	783.8	–	1.365	–
1960 kPa, x2 = 0.102	–	767.2	–	0.743
2000 kPa, x2 = 0.133	791	–	1.108	–
2950 kPa, x2 = 0.164	–	771.5	–	0.657
2980 kPa, x2 = 0.212	798.5	–	0.895	–
3930 kPa, x2 = 0.23	–	776.1	–	0.538
3970 kPa, x2 = 0.304	807.3	–	0.604	–
4930 kPa, x2 = 0.305	–	780.3	–	0.394
5940 kPa, x2 = 0.391	–	783.7	–	0.321

CC [ethane] + CC(C)O
[1]
Details	mass density, 302.9 K [kg/m3]	mass density, 323.1 K [kg/m3]	viscosity, 302.9 K [mPa·s]	viscosity, 323.1 K [mPa·s]
910 kPa, x1 = 0.057	–	741.3	–	0.882
1030 kPa, x1 = 0.09	751.2	–	1.251	–
1990 kPa, x1 = 0.141	–	716.3	–	0.663
2030 kPa, x1 = 0.199	718.5	–	0.919	–
2970 kPa, x1 = 0.227	–	688.2	–	0.471
3040 kPa, x1 = 0.347	669.3	–	0.526	–
3650 kPa, x1 = 0.47	623	–	0.246	–
3970 kPa, x1 = 0.334	–	650.6	–	0.338
4940 kPa, x1 = 0.478	–	593.7	–	0.217
5620 kPa, x1 = 0.644	–	515.7	–	0.131
